“Also recorded” adds a separate entry of the source.
Assays:
[1] = target: T1, oxy-Hb in intact human erythrocytes (Homo sapiens, UniProt P68871+P69905); test: Oxidation of oxy-Hb in intact human erythrocytes; assay type: cell-based; conditions: 10 μM, 3 h/37 °C; for oxy-Hb oxidation to met-Hb in erythrocytes: control 0.5%
T1 construct: Physiologically, oxy-Hb is found in erythrocytes; endogenous in cells; host or cells: intact human erythrocytes from fresh blood of healthy donors
Experimental: Fig. 7 (A and B) Investigation of the effects of Dp4e4mT and its Fe(III), Co(III), Ni(II), Cu(II), Zn(II), Ga(III), and Pd(II) complexes versus DFO, Dp44mT, DpC and their Fe(III) complexes (10 μM) on met-Hb generation (% zero time) after an incubation of 1–3 h/20 °C with purified oxy-Hb (40 μM). (C) Investigation of the effects of Dp4e4mT and its Fe(III), Co(III), Ni(II), Cu(II), Zn(II), Ga(III), or Pd(II) complexes relative to the positive controls DFO, Dp44mT, DpC, and their Fe(III) complexes (10 μM) on oxy-Hb oxidation in intact human erythrocytes after a 3 h/37 °C incubation. Results are mean ± SD (3 experiments).
Physiologically, oxy-Hb is found in erythrocytes, and in the current investigation, the ligands and complexes (10 μM) were incubated with intact human erythrocytes for 3 h/37 °C to assess their effects on oxy-Hb oxidation (Fig. 7C). As expected from our previous studies,[28,39] […]
In experiments examining the activity of the agents, all complexes were dissolved in 1,2-propanediol, then diluted to 10 µM in PBS (pH 7.2). […]
1800; Shimadzu, Kyoto, Japan). Concentrations of met-Mb and met-Hb, as well as reduced-Mb and reduced-Hb, were determined at 409 nm and 435 nm, respectively. Concentrations of oxy-Mb and oxy-Hb were determined at 544 nm and 582 nm, respectively. 17 Oxidation of Oxy-Hb in Human Erythrocytes
Oxidation of oxy-Hb in human erythrocytes was performed by standard methods using fresh blood from healthy donors after collection in Vacutainer® collection tubes (BD, Plymouth, UK).8 Erythrocytes centrifuged (480 xg/5 min/4°C) and then washed in HBSS, and subsequently resuspended in this buffer. Incubation of the erythrocytes (15% hematocrit) in the absence or presence of the agents (10 μM) was performed for 3 h/37°C. The erythrocytes were […]

AsPC-1 cells = test: MTT cellular proliferation assay, AsPC-1 pancreatic adenocarcinoma cells; assay type: cell-based, human; conditions: for IC50: 37 °C, MTT, mean ± SD (3 experiments); for Therapeutic index AsPC-1: IC50 of MRC-5 cells/IC50 of AsPC-1 cells, 72 h/37 °C
Experimental: The anti-proliferative activity of Dp4e4mT relative to its complexes with Fe(III), Co(III), Ni(II), Cu(II), Zn(II), Ga(III), and Pd(II) was examined over incubation periods of 24-, 48-, and 72 h/37 °C (Table 2). These studies were performed using human SK-N-MC neuroepithelioma and AsPC-1 pancreatic adenocarcinoma cells that we have previously examined to assay other ligands.[15,28,43] […]
All cell lines were procured from the American Type Culture Collection (ATCC; Manassas, VA). The SK-N-MC neuroepithelioma cell line and the mortal MRC-5 fibroblasts were cultured in minimum essential medium (Sigma-Aldrich), while the AsPC-1 cell line was cultured in Roswell Park Memorial Institute 1640 medium (Thermo Fisher Scientific, MA, USA). Both media were supplemented with 10% fetal calf serum, non-essential amino acids (1 mM), sodium pyruvate (1 mM), L-glutamine (2 mM), penicillin (100 U/mL), streptomycin (100 U/mL), and Fungizone (0.5 µg/mL). Cells were maintained at 37 °C in an incubator under a humidified atmosphere with 5% CO 2, following established protocols. 11 Cellular Proliferation Assay
Cellular proliferation was evaluated through the established 3-(4,5-dimethylthiazol-2-yl)-2,5-diphenyltetrazolium bromide (MTT) proliferation assay, validated by viable cell counts.12 […]
Ligands and complexes were dissolved in DMSO to make a stock solution of 10 mM, subsequently diluted in culture media. For cell culture experiments, the DMSO's maximum concentration remained below 0.5% (v/v), with no discernible impact on proliferation.12 MTT […]
Trypan blue staining.12 Analysis of the data was executed employing MARS Data Analysis Software (BMG LabTech; version 3.30). The concentration of agents necessary to inhibit cellular proliferation by 50% (IC 50) was then calculated. […]

[2] = Transmetallation kinetics with FeCl3 in DMSO (time-resolved UV-vis); assay type: physicochemical; conditions: for Observed pseudo first order rate constant kobs, FeCl3: 10-fold excess of FeCl3 in DMSO, 25 °C; for t½, transmetallation with FeCl3: FeCl3 in DMSO
Experimental: The capacity of the Fe(III), Ni(II), Co(III), Zn(II), Ga(III), and Pd(II) complexes of Dp4e4mT to transmetallate with Cu(II) and/or Fe(III) to result in redox active Cu(II) and Fe(III) complexes could be critical in understanding their anti-proliferative efficacy, redox activity, and ability to oxidize oxy-Mb and oxy-Hb. To examine this, LC-MS spectrometry was performed in DMSO after the addition of 1 equivalent of FeCl3 or Cu(OAc)2 and the solutions then incubated for 24 h/20 °C due to slow reaction kinetics. This solution was then diluted 1 : 1 in methanol and LC-MS performed using a mobile phase consisting of 90% MeOH, 9.9% water, and 0.1% formic acid (Fig. S2–S9 ^†). These investigations were supported by EPR studies in DMSO after the addition of 1 equivalent of FeCl3 or Cu(OAc)2 incubated under the same conditions (Fig. 3A–G). As a third method to investigate transmetallation, kinetic studies using time-resolved UV-vis spectroscopy were performed under pseudo-first order conditions with a 10-fold excess of FeCl3 or Cu(OAc)2 in DMSO (Fig. S11–S16 ^†). The pseudo-first order rate constants were calculated from the time-dependent UV-vis spectroscopy data (at all wavelengths) with Reactlab Kinetics[49] and collected in Table S2. ^† […]
Time-dependent UV-Vis absorption spectra were measured on an Agilent 8453 diode array UV−Vis spectrophotometer, equipped with a thermostatted (± 0.1 °C) multicell transport cooled by a Huber Ministat 230 recirculating cooling bath. Spectral analysis was carried out with Reactlab Kinetics. 10 […]
Table S2. Observed pseudo first order rate constants (k obs, s−1) for reactions of each Dp4e4mT complex with a 10-fold excess of Cu(OAc) 2 or FeCl 3 in DMSO or water (pH 7.4 or 5.0) at 25 °C. […]
[Co(Dp4e4mT)2]+ No reaction No reaction No reaction No reaction […]
a Reaction could not be deciphered by UV-Vis spectroscopy; bchlorido ligand hydrolysis

[3] = Homo sapiens, ASPC1, AsPC-1, 24 h
[4] = Homo sapiens, ASPC1, AsPC-1, 48 h
[5] = Homo sapiens, ASPC1, AsPC-1, 72 h

T1 sequence (P69905 2-142 limits assumed): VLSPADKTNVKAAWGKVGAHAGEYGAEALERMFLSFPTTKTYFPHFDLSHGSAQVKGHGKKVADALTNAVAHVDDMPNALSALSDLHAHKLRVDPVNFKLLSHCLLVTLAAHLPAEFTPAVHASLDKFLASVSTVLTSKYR
T1 sequence (P68871 2-147 limits assumed): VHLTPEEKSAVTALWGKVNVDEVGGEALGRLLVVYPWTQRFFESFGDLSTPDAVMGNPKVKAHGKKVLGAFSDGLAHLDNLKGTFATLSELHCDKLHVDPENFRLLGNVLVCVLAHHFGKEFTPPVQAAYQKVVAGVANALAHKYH

| SMILES | oxy-Hb oxidation to met-Hb in erythrocytes [1] | IC50 (AsPC-1 cells; [3]) [nM] | IC50 (AsPC-1 cells; [4]) [nM] | IC50 (AsPC-1 cells; [5]) [nM] | Therapeutic index AsPC-1 (AsPC-1 cells) | oxy-Hb oxidation in erythrocytes versus the control (in words) [1] | Observed pseudo first order rate constant kobs, FeCl3 [2] | oxy-Hb oxidation in erythrocytes versus the control (in words) ([1]; listed as Dp4e4mT Co(III) complex) | IC50 (AsPC-1 cells; AsPC-1, 24 h) [nM] | IC50 (AsPC-1 cells; AsPC-1, 48 h) [nM] | IC50 (AsPC-1 cells; AsPC-1, 72 h) [nM] | t½, transmetallation with FeCl3 [2] [h] | IC50 (AsPC-1 cells; AsPC-1, 24 h, listed as Dp4e4mT Ga(III) complex) [nM] | extent of reaction with Fe(III) ([2]; DMSO, after 3 days) [%] | oxy-Hb oxidation in erythrocytes versus the control (in words) ([1]; listed as Dp4e4mT Ni(II) complex) | oxy-Hb oxidation in erythrocytes versus the control (in words) ([1]; listed as Dp4e4mT Pd(II) complex) | oxy-Hb oxidation in erythrocytes versus the control (in words) ([1]; listed as Dp4e4mT Zn(II) complex) |
| --- | --- | --- | --- | --- | --- | --- | --- | --- | --- | --- | --- | --- | --- | --- | --- | --- | --- |
| CCN(C)C(=S)NN=C(c1ccccn1)c1ccccn1 [Dp4e4mT, di-2-pyridylketone-4-ethyl-4-methyl-3-thiosemicarbazone] | 1.9 % of the total | 3780 ± 91 | 45 ± 8 | 9 ± 2 | 120 | – | – | – | – | – | – | – | – | – | – | – | – |
| CN(C)C(=S)NN=C(c1ccccn1)c1ccccn1 [Dp44mT, di-2-pyridylketone 4,4-dimethyl-3-thiosemicarbazone, reference compound] | 2.3 % of the total | 4640 ± 71 | 42 ± 6 | 15 ± 3 | 71 | – | – | – | – | – | – | – | – | – | – | – | – |
| CN(C(=S)NN=C(c1ccccn1)c1ccccn1)C1CCCCC1 [DpC, di-2-pyridylketone 4-cyclohexyl-4-methyl-3-thiosemicarbazone, reference compound] | – | 4921 ± 34 | 87 ± 34 | 18 ± 7 | 165 | did not induce any significant (p > 0.05) increase in oxy-Hb oxidation | – | – | – | – | – | – | – | – | – | – | – |
| CCN(C)C([S-])=NN=C(c1ccccn1)c1ccccn1.CCN(C)C([S-])=NN=C(c1ccccn1)c1ccccn1.[Co+3] [[Co(Dp4e4mT)2]^+] | – | – | – | – | 2 | negligible effects on oxy-Hb oxidation | No reaction | no (p > 0.05) significant effect on oxy-Hb oxidation | 9522 ± 91 | 2680 ± 78 | 1570 ± 257 | – | – | – | – | – | – |
| CCN(C)C([S-])=NN=C(c1ccccn1)c1ccccn1.[Cl-].[Cu+2] [[Cu(Dp4e4mT)Cl]] | – | – | – | – | 130 | negligible effects on oxy-Hb oxidation | No reaction | – | 1074 ± 6 | 42 ± 6 | 3 ± 1 | – | – | – | – | – | – |
| CCN(C)C([S-])=NN=C(c1ccccn1)c1ccccn1.CCN(C)C([S-])=NN=C(c1ccccn1)c1ccccn1.[Fe+3] [[Fe(Dp4e4mT)2]^+] | 4.8 % of the total | – | – | – | 9 | – | – | – | 22380 ± 58 | 1580 ± 77 | 201 ± 31 | – | – | – | – | – | – |
| CCN(C)C([S-])=NN=C(c1ccccn1)c1ccccn1.CCN(C)C([S-])=NN=C(c1ccccn1)c1ccccn1.[Ga+3] [[Ga(Dp4e4mT)2]^+] | 1.3 % of the total | – | – | – | 154 | slight effect | – | – | 2431 ± 15 | 47 ± 6 | 5 ± 1 | 3 to 4 | 1730 to 2430 | – | – | – | – |
| CCN(C)C([S-])=NN=C(c1ccccn1)c1ccccn1.CCN(C)C([S-])=NN=C(c1ccccn1)c1ccccn1.[Ni+2] [[Ni(Dp4e4mT)2]] | – | – | – | – | 62 | negligible effects on oxy-Hb oxidation | No reaction; also recorded: unreactive | – | > 25000 | 234 ± 83 | 76 ± 54 | – | – | ~20 | no (p > 0.05) significant effect on oxy-Hb oxidation | – | – |
| CCN(C)C([S-])=NN=C(c1ccccn1)c1ccccn1.[Cl-].[Pd+2] [[Pd(Dp4e4mT)Cl]] | – | – | – | – | 3 | negligible effects on oxy-Hb oxidation | No reaction | – | > 25000 | 1340 ± 74 | 262 ± 78 | – | – | – | – | no (p > 0.05) significant effect on oxy-Hb oxidation | – |
| CCN(C)C([S-])=NN=C(c1ccccn1)c1ccccn1.CCN(C)C([S-])=NN=C(c1ccccn1)c1ccccn1.[Zn+2] [[Zn(Dp4e4mT)2]] | – | – | – | – | 125 | negligible effects on oxy-Hb oxidation | 0.00891 s⁻¹ | – | – | – | – | ~0.017 | – | – | – | – | no (p > 0.05) significant effect on oxy-Hb oxidation |

— paper PMC10793205, “Differential transmetallation of complexes of the anti-cancer thiosemicarbazone, Dp4e4mT: effects on anti-proliferative efficacy, redox activity, oxy-myoglobin and oxy-hemoglobin oxidation” (Chemical Science, 2023)
